The results in this text go back to patent US11724995B2, “Decalin derivatives, a process for the preparation and pharmaceutical composition thereof” (Council of Scientific & Industrial Research, priority 2018, dated 2023).

The assay relates to Sickle cell red blood cells (SS RBCs). Kind of assay: Flow adhesion assay: sickle cell adhesion inhibition, RBCs perfused over TNF-α activated HUVEC monolayer. It counts as cell-based. The following applies: Homo sapiens; Table 1; SS RBCs treated with test compound at 100 μM, hypoxic condition 2 h; adhesion to TNF-α activated HUVEC monolayer under pulsatile flow; read-out: Inhibition (percentage of inhibition of cell adhesion). The method, then:
In still yet another embodiment, the present disclosure provides Sickle cell adhesion inhibition using Sickle cell red blood cells (SS RBCs). Flow adhesion assay are performed with commercial microfluidic-well plate and microfluidic flow adhesion system. Microfluidic channels are coated by perfusion (1 dyne/cm^2, 5 min) and incubated (37° C., 1 h) with 100 ng/ml Fibronectin. Channels are then perfused with complete media to remove unbound Fibronectin. Then a uniform monolayer of HUVEC cells is formed by profusing micro channels with the cell suspension at a pressure of 3 dyne/cm^2 for 5 sec and kept for 12 hours incubation to form monolayer. The HUVEC monolayer is activated 25 ng/ml of TNF-α and incubated (37° C., 4 h). Meanwhile Sickle cell red blood cell (SS RBCs) are treated with test compound at 100 μM concentration and incubated in hypoxic condition ([…], 5% CO2, 2 h). Flow condition for adhesion assay was pulsatile (1.67 Hz) flow (0.3 dyne/cm^2). For adhesion inhibition assay SS RBCs are diluted (2:50) in PBS. SS RBCs are perfused over HUVEC monolayer and incubated for 1 h. Unbound cells in micro channels are removed by perfusing complete media. Adherent cells are enumerated. Table 1 depicts percentage of inhibition when the compounds are tested at 100 μM concentration.
Flow adhesion assay were performed with commercial microfluidic-well plate and microfluidic flow adhesion system, Bio flux 200. Microfluidic channels were coated by perfusion (1 dyne/cm^2, 5 min) and incubated (37° C., 1 h) with 100 ng/ml Fibronectin. Channels were then perfused with complete media to remove unbound Fibronectin. Then a uniform monolayer of HUVEC cells was formed by profusing micro channels with the cell suspension at a pressure of 3 dyne/cm^2 for 5 sec and kept for 12 hours incubation to form monolayer. The HUVEC monolayer was activated 25 ng/ml of TNF-α and incubated (37° C., 4 h). Meanwhile RBCs were treated with test compound at 100 μM concentration and incubated in hypoxic condition ([…], 5% CO2, 2 h). Flow condition for adhesion assay was pulsatile (1.67 Hz) flow (0.3 dyne/cm^2). For adhesion inhibition assay RBCs were diluted (2:50) in PBS. RBCs were perfused over HUVEC monolayer and incubated for 1 h. Unbound cells in micro channels were removed by perfusing complete media. Adherent cells were enumerated.
As to `C[C@@H]1CC(=O)C=C2C=CCC[C@]21C` [Compound 21, (4R,4aS)-4,4a-dimethyl-4,4a,5,6-tetrahydronaphthalen-2(3H)-one], the inhibition at 100 µM was determined as 78%. The same measure for `C[C@@H]1CC=CC2=CC(=O)CC[C@]21C` [Compound 24, (4aS,5R)-4a,5-dimethyl-4,4a,5,6-tetrahydronaphthalen-2(3H)-one]: 67%; for `C[C@@H]1CC(=O)C=C2C[C@@H](O)[C@@H](O)C[C@]21C` [Compound 28, (4R,4aS)-6,7-dihydroxy-4,4a-dimethyl-4,4a,5,6,7,8-hexahydronaphthalen-2(3H)-one]: 56%; for `C[C@@H]1CC(=O)C=C2C=CC(=O)C[C@]21C` [Compound 29, (8R,8aS)-8,8a-dimethyl-1,7,8,8a-tetrahydronaphthalene-2,6-dione]: 70%. As for `C[C@@H]1C(=O)C=CC2=CC(=O)CC[C@]21C` [Compound 30, (1S,8aS)-1,8a-dimethyl-1,7,8,8a-tetrahydronaphthalene-2,6-dione], the figure is 72%.

As usually defined, the inhibition is the relative decrease from the control value, in per cent.
